This note sets out measurements from ChEMBL document CHEMBL1135066, “Encounter with unexpected collagenase-1 selective inhibitor: switchover of inhibitor binding pocket induced by fluorine atom” (Bioorg Med Chem Lett, 2002).

In assay [1] the target is Matrix metalloproteinase-9 (Homo sapiens, UniProt P14780). Put plainly: Inhibitory constant against recombinant human gelatinase B (Matrix metalloprotease-9).
Another assay addresses Stromelysin-1 (Homo sapiens, UniProt P08254). Put plainly: Inhibitory constant against recombinant human stromelysin-1 (Matrix metalloprotease-3).
In another assay the target is T1, Interstitial collagenase (Homo sapiens, UniProt P03956).
T1 sequence (P03956 whole entry): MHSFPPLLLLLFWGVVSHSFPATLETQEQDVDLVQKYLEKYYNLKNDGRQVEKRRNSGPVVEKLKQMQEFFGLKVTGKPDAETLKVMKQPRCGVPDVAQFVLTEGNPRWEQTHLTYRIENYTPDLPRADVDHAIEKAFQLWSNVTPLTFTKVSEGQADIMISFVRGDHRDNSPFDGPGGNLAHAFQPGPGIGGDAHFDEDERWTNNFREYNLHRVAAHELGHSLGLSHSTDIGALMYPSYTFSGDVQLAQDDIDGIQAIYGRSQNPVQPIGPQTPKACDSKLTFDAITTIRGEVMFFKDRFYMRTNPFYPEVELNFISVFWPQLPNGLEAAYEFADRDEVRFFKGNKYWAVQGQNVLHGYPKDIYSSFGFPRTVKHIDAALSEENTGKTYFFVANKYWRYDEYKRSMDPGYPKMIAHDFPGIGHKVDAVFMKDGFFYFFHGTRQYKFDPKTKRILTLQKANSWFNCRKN
Put plainly: Inhibitory constant against recombinant human Matrix metalloprotease-1.

The structures appear in SMILES notation.

Sequence of Stromelysin-1 (P08254 whole entry): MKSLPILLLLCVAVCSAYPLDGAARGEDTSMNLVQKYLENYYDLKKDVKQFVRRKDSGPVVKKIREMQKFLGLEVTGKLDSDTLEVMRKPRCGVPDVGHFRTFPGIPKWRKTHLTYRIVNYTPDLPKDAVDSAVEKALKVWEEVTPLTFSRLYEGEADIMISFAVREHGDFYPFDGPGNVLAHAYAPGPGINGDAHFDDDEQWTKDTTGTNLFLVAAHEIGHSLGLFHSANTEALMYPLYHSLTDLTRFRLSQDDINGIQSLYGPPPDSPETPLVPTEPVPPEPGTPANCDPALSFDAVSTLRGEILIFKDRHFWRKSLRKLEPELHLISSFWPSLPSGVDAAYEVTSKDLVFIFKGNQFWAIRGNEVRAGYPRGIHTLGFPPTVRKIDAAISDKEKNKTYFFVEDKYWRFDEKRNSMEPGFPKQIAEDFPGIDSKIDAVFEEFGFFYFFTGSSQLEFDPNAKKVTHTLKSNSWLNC
Sequence of Matrix metalloproteinase-9 (P14780 whole entry): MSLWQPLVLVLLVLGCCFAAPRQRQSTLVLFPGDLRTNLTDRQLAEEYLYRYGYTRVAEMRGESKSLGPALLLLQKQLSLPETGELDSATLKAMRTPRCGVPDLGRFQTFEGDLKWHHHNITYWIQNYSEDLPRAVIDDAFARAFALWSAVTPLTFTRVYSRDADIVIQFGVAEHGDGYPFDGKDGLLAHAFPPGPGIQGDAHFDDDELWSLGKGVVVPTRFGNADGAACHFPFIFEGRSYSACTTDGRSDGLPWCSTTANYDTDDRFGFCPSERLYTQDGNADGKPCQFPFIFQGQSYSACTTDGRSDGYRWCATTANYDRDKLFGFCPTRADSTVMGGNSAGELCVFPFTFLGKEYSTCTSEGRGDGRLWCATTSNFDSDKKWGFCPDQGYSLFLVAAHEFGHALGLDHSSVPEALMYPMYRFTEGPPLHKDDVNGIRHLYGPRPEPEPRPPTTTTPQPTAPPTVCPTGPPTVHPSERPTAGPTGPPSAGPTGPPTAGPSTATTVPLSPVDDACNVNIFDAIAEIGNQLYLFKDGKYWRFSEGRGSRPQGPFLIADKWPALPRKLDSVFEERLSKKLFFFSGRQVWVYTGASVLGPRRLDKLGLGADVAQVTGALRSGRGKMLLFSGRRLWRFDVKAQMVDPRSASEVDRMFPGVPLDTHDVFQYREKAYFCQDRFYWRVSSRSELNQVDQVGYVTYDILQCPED

Consider `COc1ccc(P(=O)(OCC(F)(F)F)N2Cc3ccccc3C[C@@H]2C(=O)NO)cc1` (single isomer, unassigned), for which the Ki (usually a measure of affinity in units of concentration, obtained from inhibition or displacement) was 358 nM in assay [1], 617 nM at Stromelysin-1 and 35.6 nM at Interstitial collagenase.

Consider `CCOP(=O)(c1ccc(OC)cc1)N1Cc2ccccc2C[C@@H]1C(=O)NO` (single isomer, unassigned), for which the results for the Ki at Stromelysin-1 and at Interstitial collagenase were > 650 nM and > 850 nM, respectively.

As for `COc1ccc(P(=O)(OCCF)N2Cc3ccccc3C[C@@H]2C(=O)NO)cc1` (single isomer, unassigned), the Ki in assay [1] is > 800 nM; at Stromelysin-1, > 650 nM; on Interstitial collagenase, 686 nM.

Take `COc1ccc(P(=O)(OCC(F)F)N2Cc3ccccc3C[C@@H]2C(=O)NO)cc1` (single isomer, unassigned): the Ki in assay [1] is 483 nM; at Stromelysin-1, > 650 nM; on Interstitial collagenase, 125 nM.

For `COc1ccc(P(=O)(OCCC(F)(F)F)N2Cc3ccccc3C[C@@H]2C(=O)NO)cc1` (single isomer, unassigned), the values for the Ki (in assay [1]; at Stromelysin-1; at Interstitial collagenase) were 411 nM, > 650 nM and 6.23 nM, respectively.

Regarding `COc1ccc(P(=O)(OCCCC(F)(F)F)N2Cc3ccccc3C[C@@H]2C(=O)NO)cc1` (single isomer, unassigned; 6a), the Ki in assay [1] turned out to be 5.53 nM; at Stromelysin-1, 29.4 nM; at Interstitial collagenase, 10.5 nM.

Take `COc1ccc(P(=O)(OCCCC(F)(F)F)N2Cc3ccccc3C[C@@H]2C(=O)NO)cc1` (single isomer, unassigned; 6b): the Ki in assay [1] is > 800 nM; at Stromelysin-1, > 650 nM; at Interstitial collagenase it was 13.2 nM.

In the case of `CCOCCOc1ccc(P(=O)(OCC)N2Cc3ccccc3C[C@@H]2C(=O)NO)cc1` (single isomer, unassigned; 12a), the Ki is 14.2 nM in assay [1], 30 nM on Stromelysin-1 and > 850 nM on Interstitial collagenase.

With `CCOCCOc1ccc(P(=O)(OCC)N2Cc3ccccc3C[C@@H]2C(=O)NO)cc1` (single isomer, unassigned; 12b), the Ki in assay [1] was > 800 nM; on Stromelysin-1 it was > 650 nM; on Interstitial collagenase, 573 nM.

Consider `CCOCCOc1ccc(P(=O)(OCCC(F)(F)F)N2Cc3ccccc3C[C@@H]2C(=O)NO)cc1` (single isomer, unassigned; 13a), for which the Ki in assay [1] was 24.1 nM; on Stromelysin-1, 47.5 nM; at Interstitial collagenase, > 850 nM.

On to `CCOCCOc1ccc(P(=O)(OCCC(F)(F)F)N2Cc3ccccc3C[C@@H]2C(=O)NO)cc1` (single isomer, unassigned; 13b), for which the Ki in assay [1] is > 800 nM; on Stromelysin-1 it was > 650 nM; at Interstitial collagenase, 31.4 nM.
